“Also recorded” adds a separate entry of the source. Non-standard residues stand in square brackets, D forms with d. No end group written: not given here.
Experiments:
[1] = test system: T cell lines LW 80, 88, 90 and 93; assay: Specificity and phenotype of APL-reactive T cell lines from patient; format: cell-based, human; conditions: 25 μg/ml antigen
Experimental: Four cell cultures from one patient ([…], 32% frequency) showing a response (> three-fold over background) were expanded into cell lines (LW 80, 88, 90 and 93) by incubation in IL-2 for 11-14 days (1-2 passages). Once sufficient cells had grown up, they were cultured with either medium alone or 25 μg/ml of either whole MBP, MBP (83-99) or APL NBI-5788. After 24 hours, the supernatants were collected and the level of cytokines determined (see FIGS. 22 to 26). The remaining cultures were pulsed with radiolabeled thymidine and the extent of incorporation determined.

[2] = test system: peripheral blood T cells of MS patients; assay: Frequency of antigen-reactive peripheral blood T cells after NBI-5788 treatment of MS patients (split-well); format: in vivo, human
Experimental: MS patients studied were those participating in phase I clinical trials using NBI-5788 administered subcutaneously (5, 10 or 20 mg) weekly for four weeks. Patients had MRI evaluations performed at baseline and at 6 and 12 weeks. All but 1 patient had secondary or primary progressive disease (SP or PP, respectively). For patients in group A, immunologic evaluations involving use of NBI-5788 as antigen could be performed only 9 months after completion of the treatment phase of the study. For patients in group B, immunologic evaluation was performed just prior to entry into the study (pre-treatment) and after 3 months following completion of the 1 month treatment phase. Two additional patients with SP MS, one with relapsing remitting (RR) MS and 3 normal controls were also studied.
Immune response to the peptide analog was assessed by measuring the frequency of proliferating peripheral blood T cells using a split-well microtiter method (i.e., number of positive wells {Δ cpm >1000, stimulation index>3} divided by the total number of wells assayed). Peripheral blood mononuclear cells (PBMC) were isolated from venous blood by Ficoll-Hypaque density gradient centrifugation, washed twice and resuspended in complete tissue culture medium (Iscove's modification of Dulbecco's medium containing 10% heat-inactivated, pooled, human A-B serum, 2 mM L-glutamine, 100 U/ml penicillin/streptomycin and 50 μg/ml gentamycin). PBMC from each patient were seeded at 10^5/well in 96 well, U-bottom microtiter plates containing 25 μg/ml whole MBP, 10 μg/ml NBI-5788 or medium alone in a volume of 200 μl. Three days later supernatants were collected and frozen at −80° C. and fresh medium containing IL-2 (10 U/ml) was added. IL-2-containg medium was refreshed on Day 7 and Day 11. On Day 14, the frequency of antigen response was determined by the “split well” technique. Briefly, cells from one primary well were split into replicate experimental wells in the presence of 10^5 freshly isolated autologous, irradiated peripheral blood mononuclear cells (APCs): one containing the original antigen (25 μg/ml) and one without antigen. Two days later supernatants were collected and the wells pulsed with 1 µCi/well [^3H]-thymidine ([…]) for the final 18 hours of culture. ^3H-Thymidine uptake was measured in a beta counter. […] The association between T cell frequency and NBI-5788 treatment was evaluated by χ^2 contingency analysis.

[3] = test system: T cell cultures from multiple sclerosis patients; assay: Th2/Th1 (IL-13/IFN-γ) activity of T cell cultures of MS patients by dose group; format: in vivo, human; conditions: 1, 5 and 20 mg dose groups, weeks 3, 5 and 8; most prominently in the 5 and 20 mg dose groups, FIG. 34
Experimental: T cell analyses (cytokine production) were performed at Week 1 (pre-dosing), at Week 3 (=just prior to third dose), at Week 5 (1 week after last dose) and Week 8 (4 weeks after last dose). Tritiated thymidine uptake was measured using a beta scintillation counter (Topcount, Packard).
Interferon-γ(marker for Th1 activity) and IL-13 (marker for Th2 activity) were measured by Enzyme-Linked Immuno-Assay (ELISA) in T cell culture supernatants collected prior to [^3H]-thymidine incorporation (proliferation assay).
To measure IFN-γ produced by T cell cultures, a sandwich ELISA method was employed. Microtiter plates were coated with 2 μg/ml capture antibody (Pharmingen, San Diego) in 0.1 M NaHCO3 (pH=8.2) overnight at 4° C. Plates were then incubated with blocking buffer (1% solution [w/v] of casein [Sigma] in water, pH=8.2) for at least 30 minutes at room temperature to block non-specific binding sites. […] The reaction was stopped by the addition of 0.2N H2SO4 and absorbance at 450 nm was determined using a microplate spectrophotometer (Molecular Dynamics, Sunnyvale, Calif., USA). […]
To measure IL-13 produced by T cell cultures, a sandwich ELISA method was employed. […] The reaction was stopped by the addition of 0.2N H2SO4 and absorbance at 450 nm was determined using a microplate spectrophotometer (Molecular Dynamics, Sunnyvale, Calif., USA). […]

MBP(83-99) (83E>a, 84N>K, 89F>L, and 91K>A) ([dA]KPVVHLFANIVTPRTP) [NBI-5788]
thymidine incorporation of T cell line ([1]; Line 80 of patient): 25,696 ± 408 cpm
thymidine incorporation of T cell line ([1]; Line 88 of patient): 11,603 ± 424 cpm
thymidine incorporation of T cell line ([1]; Line 90 of patient): 25,317 ± 8,221 cpm
thymidine incorporation of T cell line ([1]; Line 93 of patient): 16,197 ± 2,095 cpm
mean frequency of NBI-5788-reactive T cells after treatment ([2]; 5, 10 or 20 mg, four times weekly, seven MS patients): 35.8±12.8%
mean frequency of MBP-reactive T cells after treatment ([2]; after treatment with NBI-5788 (n=7)): 16.4±5.7%
change of frequency of MBP-reactive T cells following administration ([2]; human, in vivo): does not change markedly
change of NBI-5788-reactive T cells in peripheral blood after subcutaneous administration versus untreated MS patients ([2]; human, in vivo, sc): significant (χ^2=82.7, p<0.001) increase; also recorded: strongly induced
ratio of overall Th2-type to overall Th1-type activities (IL-13/IFN-γ) [3]: clear shift to an overall Th2 activity

Source: patent publication US6379670B1, “Methods for treatment of multiple sclerosis using peptide analogs of human myelin basic protein” (Neurocrine Biosciences, Inc., priority 1994, dated 2002)
